Values after ≈ are worked out from the molar mass of the structure shown.
How the values were obtained:
[1] = target: T1, TACC3-DsRed fusion protein (Homo sapiens, UniProt Q9Y6A5); assay: Chemical array screening for compounds binding to TACC3-DsRed fusion protein; conditions: compound immobilized on chemical array, cell lysate
T1 construct: expressed in transfected cells; host or cells: HEK293T
Experimental: The present inventors screened for compounds targeting at TACC3 using a chemical array (FIG. 1).
According to the protocol of Miyazaki et al. (Non Patent Literature 13), a cell lysate containing a TACC3-DsRed fusion protein was contacted with the chemical array to screen for a compound binding to the TACC3-DsRed fusion protein (FIG. 1, upper diagram).
The cell lysate containing a TACC3-DsRed fusion protein is prepared as follows.
Human TACC3 cDNA was cloned into pDsRed-Express-N1 (Registered Trade Mark) (manufactured by Clontech Laboratories, Inc.), which was then transferred to HEK293T cells. Forty eight hours after transfection, the cells were collected. The obtained cells were sonicated in PBS and centrifuged for removal of insoluble substances to obtain a cell lysate. The cell lysate was confirmed the presence of the TACC3-DsRed fusion protein using anti-TACC3 and anti-DsRed antibodies.
The cell lysate containing a TACC3-DsRed fusion protein was contacted with the chemical array. After washing, the TACC3-DsRed fusion protein bound with a compound immobilized on the chemical array was detected. The detection of the TACC3-DsRed fusion protein with a compound was carried out by the excitation of a chemical array slide with a wavelength of 532 nm and the detection of fluorescence at 575 nm

cultured cells = assay: Visual screening (microscopic observation) for abnormal cell division in cultured cells; assay type: cell-based; conditions: added into culture medium
Source text: As a result of screening 6800 compounds, 70 compounds were bound with the TACC3-DsRed fusion protein. These 70 compounds recognized to bind to the TACC3-DsRed fusion protein were each added into a culture medium of cultured cells. Compounds inducing abnormal cell division were selected by microscopic observation. As a result, 4 compounds were screened for as compounds inhibiting cell division (FIG. 1, lower diagram, visual screening).

mouse lymphoma cell line = assay: Cell death of lymphoma (survival rate, WST-1); assay type: cell-based; conditions: 72 h, IC50=50% survival rate, three days
Experimental: The synthesized compounds were analyzed for their activity against cell death induction using a mouse lymphoma cell line (see Non Patent Literature 12), which was a cell line derived from thymic lymphoma developed in p53KO mouse.
The number of the lymphoma cells was adjusted to 1.2×10^5 cells/ml. The cells were inoculated at a concentration of 50 μl/well to a 96-well culture dish. A medium containing each RT compound as the novel compound of the present invention at twice the concentration of 50 μl was further added thereto (final concentration: 0.021 to 13.3 μg/ml). Three days after cultivation, the survival rate was calculated using WST-1 reagent (manufactured by F. Hoffmann-La Roche, Ltd.).

[2] = system: SKOV-3 cells expressing EGFP-α-tubulin; assay: Mitotic arrest of synchronized EGFP-α-tubulin-expressing SKOV-3 cells, time-lapse single-cell analysis; assay type: cell-based; conditions: for EC50: Homo sapiens, SK-OV-3, 72 h, mitotic arrest, EC50=50% arrest rate, double thymidine block, time-lapse 3 days, at least 50 cells, read-out: SKOV3 EC50; for inhibitory effects on cell growth: summary of Table 2 (SKOV-3 mitotic arrest and lymphoma cell death); for Remarks: start of mitosis: At 66.7 μg/ml; for Remarks: cytotoxic: Table 2 remark
Experimental: The EGFP-α-tubulin-expressing cells used in the assay will be described. In order to observe mitosis under a fluorescence microscope, cells expressing EGFP-α-tubulin (fusion protein of a fluorescent protein, EGFP, and α-tubulin) were prepared. A system observable under a fluorescence microscope without cell fixation was prepared.
Ovary cancer cells SKOV-3 were cultured in an RPMI1640 medium supplemented with 5% fetal bovine serum. Stable cells expressing EGFP-α-tubulin were transduced by lentiviral transduction using pLenti4/V5-DEST vectors (Registered Trade Mark) (manufactured by Invitrogen Corp.) and selected by the FACS sorting of infected cells using Zeocin (Registered Trade Mark) and subsequent FACSAria (Registered Trade Mark) (Becton, Dickinson and Company).
The compounds NPD2448, NPD2568, NPD3574, NPD4089, and C7—O-propylated NPD3574 were each added at varying concentrations to the culture medium of SKOV-3 cells expressing EGFP-α-tubulin and analyzed for their effect on cell division.
The SKOV-3 cells expressing EGFP-α-tubulin were synchronized by thymidine block to analyze the effect on cell division of each compound. As shown in the upper part of FIG. 2, each compound was added to the culture medium after the 1st thymidine block. After synchronization by the second thymidine block, images were taken every 2 minutes for 3 days using Leica AF6000 and ×20/0.5 Plan Fluotar objective lens in a phenol red-free RPMI1640 medium supplemented with 5% fetal bovine serum. These time-lapse images were analyzed using ImageJ 1.42a software, and the time of mitotic arrest was determined by visual judgment. The duration of mitosis was manually determined from the image sequences of at least 50 cells.
The mitotic arrest (EC50=50% arrest rate) was tested by the microscopic analysis of individual single cells.
EGFP-α-tubulin-expressing SKOV-3 cells synchronized by double thymidine block in the same way as in Example 2 were treated with each synthesized compound and subjected to time-lapse photography for 3 days. At least 50 cells were observed. The time of arrest of each cell was calculated, and EC50 was determined therefrom.
EGFP-α-tubulin-expressing SKOV-3 cells supplemented with each of SPL-A and SPL-B at varying concentrations were synchronized by double thymidine block in the same way as in Example 2. Analysis based on single cells was conducted by time-lapse photography. The duration of mitosis was measured from the image sequences of at least 50 cells.

[3] = Solubility remarks of Table 2; assay type: physicochemical; conditions: Table 2 remark
[4] = system: p53-knockout cells derived from human colon cancer cells HCT-116; assay: Cell growth by WST assay, combined use of SPL-B and paclitaxel; assay type: cell-based; conditions: HCT-116, 72 h, three days
Experimental: p53-knockout cells derived from human colon cancer cells HCT-116 were cultured after combined administration of paclitaxel and SPL-B. Three days after cultivation, the survival rate of the cells was measured by WST assay.

EC50 [2] [µg/mL]	Compound	IC50 (mouse lymphoma cell line) [µg/mL]	inhibitory effects on cell growth [2]	further results
0.85 (≈ 1.88 µM)	COCCN(CCOC)Cc1c(O)ccc2c(-c3cc4ccccc4oc3=O)cc(=O)oc12 [NPD3574]	1.26 (≈ 2.79 µM)	remarkable inhibitory effects on cell growth	binding to the TACC3-DsRed fusion protein [1]: bound to the TACC3-DsRed fusion protein; abnormal cell division (cultured cells): induced abnormal cell division
> 13.3	CC(=O)OCc1c(OC(C)=O)ccc2c(-c3cc4ccccc4oc3=O)cc(=O)oc12 [RT-002]	8.3 (≈ 19.7 µM)	remarkable inhibitory effects on cell growth	Remarks: start of mitosis [2]: μg/ml, mitosis did not; Remarks: cytotoxic [2]: Cytotoxic. At 66.7
0.85 (≈ 2.17 µM)	CCN(CC)Cc1c(O)ccc2c(-c3cc4ccccc4oc3=O)cc(=O)oc12 [RT-003]	5.08 (≈ 13 µM)	remarkable inhibitory effects on cell growth	
8.49 (≈ 21.6 µM)	CN(CCO)Cc1c(O)ccc2c(-c3cc4ccccc4oc3=O)cc(=O)oc12 [RT-004]	> 13.3	remarkable inhibitory effects on cell growth	
> 13.3	CN(C)CCNCc1c(O)ccc2c(-c3cc4ccccc4oc3=O)cc(=O)oc12 [RT-005]	5.37 (≈ 13.2 µM)	remarkable inhibitory effects on cell growth	Remarks: start of mitosis [2]: μg/ml, mitosis did not; Remarks: cytotoxic [2]: Cytotoxic. At 66.7
1.15 (≈ 2.65 µM)	CCN(CCN(C)C)Cc1c(O)ccc2c(-c3cc4ccccc4oc3=O)cc(=O)oc12 [RT-006]	3.3 (≈ 7.6 µM)	remarkable inhibitory effects on cell growth	
2.67 (≈ 6.86 µM)	O=c1cc(-c2cc3ccccc3oc2=O)c2ccc(O)c(CN3CCCC3)c2o1 [RT-008]	9.77 (≈ 25.1 µM)	remarkable inhibitory effects on cell growth	
2.68 (≈ 6.64 µM)	O=c1cc(-c2cc3ccccc3oc2=O)c2ccc(O)c(CN3CCCCC3)c2o1 [RT-009]	10.1 (≈ 25.1 µM)	remarkable inhibitory effects on cell growth	
0.94 (≈ 2.25 µM)	CC1CCN(Cc2c(O)ccc3c(-c4cc5ccccc5oc4=O)cc(=O)oc23)CC1 [RT-010]	1.64 (≈ 3.93 µM)	remarkable inhibitory effects on cell growth	
1.39 (≈ 3.43 µM)	O=c1cc(-c2cc3ccccc3oc2=O)c2ccc(O)c(CN3CCOCC3)c2o1 [RT-012]	2.05 (≈ 5.06 µM)	remarkable inhibitory effects on cell growth	
> 66.7	COCCN(CCOC)Cc1c(OCC=C(C)C)ccc2c(-c3cc4ccccc4oc3=O)cc(=O)oc12 [RT-022]			Remarks: start of mitosis [2]: μg/ml, mitosis did not; Remarks: solubility [3]: Insoluble. At 66.7
> 66.7	COCCN(CCOC)Cc1c(OCC(O)CO)ccc2c(-c3cc4ccccc4oc3=O)cc(=O)oc12 (stereo not shown) [RT-024]			
> 66.7	COCC[N+]([O-])(CCOC)Cc1c(OCC=C(C)C)ccc2c(-c3cc4ccccc4oc3=O)cc(=O)oc12 [RT-025]			
> 66.7	O=c1cc(-c2cc3ccccc3oc2=O)c2ccc(O)cc2o1 [RT-030]			

The next lines start with the compound.

Compound	EC50 [2] [µg/mL]	IC50 (mouse lymphoma cell line) [µg/mL]	inhibitory effects on cell growth [2]	further results
CCCN(CCC)Cc1c(O)ccc2c(-c3cc4ccccc4oc3=O)cc(=O)oc12 [NPD2448]				binding to the TACC3-DsRed fusion protein [1]: bound to the TACC3-DsRed fusion protein; abnormal cell division (cultured cells): induced abnormal cell division
O=c1cc(-c2cc3cc(Cl)ccc3oc2=O)c2ccc(O)c(CN3CCCCCC3)c2o1 [NPD2568]				binding to the TACC3-DsRed fusion protein [1]: bound to the TACC3-DsRed fusion protein; abnormal cell division (cultured cells): induced abnormal cell division
CCCCN(C)Cc1c(O)ccc2c(-c3cc4cc(Br)ccc4oc3=O)cc(=O)oc12 [NPD4089]				binding to the TACC3-DsRed fusion protein [1]: bound to the TACC3-DsRed fusion protein; abnormal cell division (cultured cells): induced abnormal cell division
COCCN(CCOC)Cc1c(O)ccc2c(C)cc(=O)oc12 [RT-001]	> 66.7			
CCCOc1ccc2c(-c3cc4ccccc4oc3=O)cc(=O)oc2c1CN(CCOC)CCOC [RT-013]	> 66.7			
O=c1cc(-c2cc3ccccc3oc2=O)c2ccc(O)c(CN3CCC(N4CCCCC4)CC3)c2o1 [RT-014]	8.76 (≈ 18 µM)	8.25 (≈ 17 µM)	remarkable inhibitory effects on cell growth	
C#CCOc1ccc2c(-c3cc4ccccc4oc3=O)cc(=O)oc2c1CN(CCOC)CCOC [RT-017]	> 66.7			Remarks: solubility [3]: Insoluble
O=c1cc(-c2cc3cc(Cl)ccc3oc2=O)c2ccc(O)cc2o1 [RT-018]	> 66.7			Remarks: solubility [3]: Poorly soluble in DMSO
O=c1cc(-c2cc3cc(F)ccc3oc2=O)c2ccc(O)c(CN3CCOCC3)c2o1 [RT-019]	0.16 (≈ 0.378 µM)	0.12 (≈ 0.283 µM)	remarkable inhibitory effects on cell growth	
C=CCOc1ccc2c(-c3cc4ccccc4oc3=O)cc(=O)oc2c1CN(CCOC)CCOC [RT-021]	> 66.7			Remarks: solubility [3]: Insoluble
C=CCOc1ccc2c(-c3cc4ccccc4oc3=O)cc(=O)oc2c1C[N+]([O-])(CCOC)CCOC [RT-023]	> 66.7			
COCCN(CCOC)Cc1c(OCC(O)C(C)(C)O)ccc2c(-c3cc4ccccc4oc3=O)cc(=O)oc12 (stereo not shown) [RT-026]	> 66.7			
COCCN(CCOC)Cc1c(O)ccc2c(-c3cc4cc(Br)ccc4oc3=O)cc(=O)oc12 [RT-028]	6.56 (≈ 12.4 µM)	3.28 (≈ 6.18 µM)	remarkable inhibitory effects on cell growth	
COCCN(CCOC)Cc1c(O)ccc2c(-c3cc4cc(F)ccc4oc3=O)cc(=O)oc12 [RT-029]	0.17 (≈ 0.362 µM)	0.21 (≈ 0.447 µM)	remarkable inhibitory effects on cell growth	
CC(=O)O[C@H]1C(=O)[C@@]2(C)[C@H]([C@H](OC(=O)c3ccccc3)[C@]3(O)C[C@H](OC(=O)[C@H](O)[C@@H](NC(=O)c4ccccc4)c4ccccc4)C(C)=C1C3(C)C)[C@]1(OC(C)=O)CO[C@@H]1C[C@@H]2O [paclitaxel]				IC50 ([4]; adding SPL-B at 150 μM): 7.7 nM; IC50 ([4]; adding SPL-B at 300 μM): 7.54 nM; IC50 ([4]; in the absence of SPL-B): 8.34 nM
